Data: patent US9598447B2, “Phosphorus-substituted quinoxaline-type piperidine compounds and uses thereof” (Purdue Pharma L.P., priority 2010, dated 2017)
Where two headings read alike, the source gives them in different places.

Target: delta opioid receptor (Homo sapiens (Human), UniProt P41143)
Test: In vitro delta-opioid receptor binding assay ([3H]-Naltrindole displacement)
[1] = recombinant receptor expressed in CHO-K1 cells, read-out: Ki [Average ± Std Deviation] Opioid Receptor Delta

delta opioid receptor, sequence (P41143 whole entry): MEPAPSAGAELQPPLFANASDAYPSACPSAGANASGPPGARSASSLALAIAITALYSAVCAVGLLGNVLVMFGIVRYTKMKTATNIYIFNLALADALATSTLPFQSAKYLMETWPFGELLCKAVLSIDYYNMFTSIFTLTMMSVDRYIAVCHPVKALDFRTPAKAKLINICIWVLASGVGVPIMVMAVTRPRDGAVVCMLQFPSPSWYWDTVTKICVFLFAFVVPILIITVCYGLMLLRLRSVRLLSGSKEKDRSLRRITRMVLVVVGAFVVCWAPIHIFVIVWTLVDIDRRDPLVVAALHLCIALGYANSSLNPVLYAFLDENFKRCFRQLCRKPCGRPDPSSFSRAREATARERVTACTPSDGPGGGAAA

Structure (SMILES)	Ki [1]	Ki
O=c1c(P(=O)(O)O)nc2ccccc2n1[C@H]1C[C@H]2CC[C@@H](C1)N2C12CC3CC(CC1C3)C2 [BB, (4-((1R,3R,5S)-8-((2R,3as,5S,6aS)-octahydro-2,5-methanopentalen-3a-yl)-8-azabicyclo[3.2.1]octan-3-yl)-3-oxo-3,4-dihydroquinoxalin-2-yl)phosphonic acid]	> 20 µM	–
O=c1c(P(=O)(O)O)nc2ccccc2n1[C@H]1C[C@H]2CCC[C@@H](C1)N2C1CCCCCCC1 [DD, (4-((1R,3R,5S)-9-cyclooctyl-9-azabicyclo[3.3.1]nonan-3-yl)-3-oxo-3,4-dihydroquinoxalin-2-yl)phosphonic acid]	> 20 µM	–
O=C(NP(=O)(O)O)c1nc2ccccc2n([C@H]2C[C@H]3CCC[C@@H](C2)N3C2CCCCCCC2)c1=O [KK, (4-((1R,3R,5S)-9-cyclooctyl-9-azabicyclo[3.3.1]nonan-3-yl)-3-oxo-3,4-dihydroquinoxaline-2-carbonyl)phosphoramidic acid]	–	> 20 µM
